We go through 7 substances from patent US7067488B2, “Modified GLP-1 peptides with increased biological potency” (TheraTechnologies Inc., priority 2002, dated 2006).

The test system of one data set is RINm5F cells. Briefly: cAMP production in RINm5F cells. Format: cell-based. The settings on record: Mean ± SD; for IC50: 40 minutes incubation with peptide, 0.5 mM IBMX. Here is the method:
RINm5F cells (ATCC # CRL-2058) were grown to confluence and used 4 days following confluency. Aqueous stock solutions (1 mM) of GLP-1, 5, 8, 16, and 17, also containing 0.1% BSA, were made prior to the assay. Cells were pre-incubated with 100 μl RPMI containing 0.5 mM IBMX for 10 minutes at 37° C. Diluted (10^−5 to 10^−11 M) peptides (100 μl) were added to the wells and incubated for 40 minutes. At the end of the incubation period, the supernatant was collected and assayed for cAMP using a radioimmunoassay kit (Diagnostic Product Corporation). Maximal responses (pmol/mg protein) and IC50 (nM) values were evaluated from the dose-response curves and data presented in Table 3.

The conditions of data set [1]: cited from earlier work.
For a further data set, the system named is Sprague-Dawley rats. The data set is described as follows: Intraperitoneal glucose tolerance test (IPGTT), plasma insulin levels in Sprague-Dawley rats. Format: in vivo. Particulars: 10 μg/rat iv. Here is the method:
Sprague-Dawley rats (300–350 g) were fasted overnight, and injected with 1 g/kg glucose (2 ml) (over 15–20 seconds), and blood glucose levels were determined at different times during a period of 3 hours using a portable glucometer. The drugs (10 μg/rat) were dissolved in saline and injected into the femoral vein 5 minutes before the injection of glucose. Thus 0 time represents blood glucose and insulin levels after drug administration but before glucose injection. Plasma insulin levels were determined using a radioimmunoassay kit (Linco). […] The insulinogenic index was calculated as delta insulin (pM)/delta glucose (mM).

The next data set relates to CD-1 normal female mice. Particulars: 1 μg dose ip, CD-1 mice.
A further data set has as its system db/db mice. Briefly: OGTT in diabetic mice (db/db). Format: in vivo. The settings on record: 5 μG/mouse ip.

Some results are limits rather than exact numbers.

Description for CD-1 normal female mice: An OGTT was done as described above. Plasma insulin levels were determined using a commercial RIA kit (Linco Research).
Description for db/db mice: An OGTT was conducted as described in Example 3. Peptides were injected intra-parentally (ip) at 5 μG/mouse doses.

Usually IC50 stands for the midpoint of a concentration-inhibition curve. Lower therefore signals greater potency in that assay. As for GLP-1 (7–37) OH [reference compound], in the data set on RINm5F cells, half-maximal inhibition (IC50) required 0.0064 ± 0.0038 µM and the “Maximal Response” value came out at 17.6 ± 5.1 pmol/mg protein. Moreover, the “half-life of circulating GLP-1” value in data set [1] (Kreymann et al., 1987) is recorded as “about 4 minutes”. In addition, in data set [1] (active GLP-1 (Holst, 1994)), the metabolic clearance rate is 12 to 13 min and the plasma half-life was < 5 min. Further, in the data set on Sprague-Dawley rats, the order of efficacy is recorded as 15=5>7=GLP-1>8=vehicle.
Turning to “[H7] 3-aminophenyl acetic acid GLP-1 (7–36) CONH2 [Compound 16]”, in the data set on RINm5F cells, the IC50 was determined as 0.0102 ± 0.0077 µM and the “Maximal Response” value amounted to 13.8 ± 3.6 pmol/mg protein.
For “[H7] 3-aminophenyl acetic acid GLP-1 (7–37) COOH [Compound 5]” the same measures were 0.0087 ± 0.0098 µM and 20.0 ± 6.9 pmol/mg protein.
For “[H7] 3-methoxyphenyl acetic acid GLP-1 (7–37) COOH [Compound 7]”, in the data set with CD-1 normal female mice, the “effect on glucose disposal” value is listed as “no effect on glucose disposal”. The “accelerating glucose disposal compared to GLP-1” value in the data set with db/db mice is on record as “performed better than GLP-1”.
Consider “[H7] (1S, 2S) 2-ethylcyclopropyl acetic acid GLP-1 (7–37) COOH [Compound 15]”, for which the “accelerating glucose disposal compared to GLP-1” value in the data set on db/db mice is on record as “performed better than GLP-1”.
For the substance “[H7] Salicylic acid GLP-1 (7–37) CONH2 [Compound 17]”, in the data set with RINm5F cells, the midpoint of inhibition, the IC50, lay at 0.0132 ± 0.0052 µM and the “Maximal Response” value is recorded as 21.9 ± 2.1 pmol/mg protein.
On to “[H7] Salicylic acid GLP-1 (7–37) COOH [Compound 8]”, for which the “accelerating glucose disposal compared to GLP-1” value with db/db mice was “performed better than GLP-1”. For the same substance, in the data set with RINm5F cells, the IC50 came to 0.0139 ± 0.0156 µM and the “Maximal Response” value is on record as 25.1 ± 11.9 pmol/mg protein. Besides, in the data set on Sprague-Dawley rats, the order of efficacy is recorded as 15=5>7=GLP-1>8=vehicle.
